The assay addresses T1, S100B (Bos taurus, UniProt P02638).
T1 construct: S100B, purified from bovine brain; purchased Merck Millipore 559290; host or cells: bovine brain (tissue-purified)
T1 sequence (P02638 2-92 limits assumed): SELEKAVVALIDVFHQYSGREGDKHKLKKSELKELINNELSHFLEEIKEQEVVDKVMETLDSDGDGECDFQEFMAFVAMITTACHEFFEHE
The experiment in a line: SPR (Biacore 3000) steady-state binding of S100B to immobilized peptide h5-HT7_IC3. Conditions: 95% CI [3.93, 6.71], peptide amine-coupled to CM5 chip (about 1200 RU), mock-immobilized reference surface, analyte S100B purified from bovine brain, 0.38 to 12 µM (two experiments) and 1.25 to 40 µM (third), duplicates, running buffer 10 mM HEPES, 150 mM NaCl, 4 mM CaCl2, 0.005% Tween-20, pH 7.5, 25 °C, one-site binding model, three experiments, read-out: Kd (dissociation constant, affinity). The source says: • Custom peptides (> 95% pure) can be obtained from a number of commercial sources. In our hands, peptides from Selleck Chemicals (Houston, TX) have worked well. • S100B, purified from bovine brain (Cat. # 559290; Merck Millipore, Darmstadt, Germany) • Sensor Chip CM5 (single: Cat. # BR-1003-99; pack of three chips: Cat. # BR-1000-12; GE Healthcare) • Plastic Vials, Ø 7 mm; pack of 1000 vials (Cat. # BR-1002-12; GE Healthcare) • Rubber Caps, type 3; pack of 600 caps (Cat. # BR-1005-02; GE Healthcare) • Immobilization buffers: 10 mM sodium acetate, pH 4.0 (Cat. # BR-1003-49) and pH 4.5 (Cat. # BR-1003-50; GE Healthcare); 1 × 50 ml each • HBS-EP (Cat. # BR100188, 6 x 200 ml; GE Healthcare) • NaOH (Cat. # S8045; Sigma-Aldrich, Stockholm, Sweden) • DMSO (Cat. # D2650; Sigma-Aldrich) • Amine Coupling Kit (contains EDC, NHS and 1.0 M ethanolamine-HCl pH 8.5; Cat. # BR100050; GE Healthcare) • HEPES (Cat. # H3375; Sigma-Aldrich) • NaCl (Cat. # S7653; Sigma-Aldrich) • CaCl2 · 2H2O (Cat. # C8106; Sigma-Aldrich) • Tween-20 (Cat. # P1379; Sigma-Aldrich) • EDTA disodium salt (Cat. # E5134; Sigma-Aldrich) • Syringe filters, 0.2 µm pore size (Cat. # 83.1826.001; Sarstedt, Helsingborg, Sweden) • Bottle top filtration unit, 0.45 µm pore size (Cat. # 83.1823.100; Sarstedt)
Running buffer with Ca2+: 10 mM HEPES, 150 mM NaCl, 4 mM CaCl2, 0.005% Tween-20; pH 7.5. Store at 4 °C between experiments. […]
On the technique in general: Surface plasmon resonance follows binding to a sensor surface in real time, without labels.

pKd: −log10 of the molar value. No end group written: not given here.

Take KFPGFPRVEPDSVIALNGIV [h5-HT7_IC3]: the pKd (usually the negative decadic logarithm of the Kd, by convention in mol/L) is 5.27.
